Here are results for four molecules from US20090232838A1, “Ligands of melanocortin receptors” (priority 2005, published 2009).

Assay [1] addresses T1, hMC1-R (Homo sapiens, UniProt Q01726).
T1 construct: expressed in transfected cells; host or cells: CHO-K1
Put plainly: Radioligand binding assay, hMC1-R. The protocol:
(§1) Cellular membranes used for the in vitro receptor binding assays were obtained from transgenic CHO-K1 cells stably expressing hMC-R receptor subtypes 1, 3, 4 or 5. […] The pellets were resuspended in the same buffer and centrifuged at 50,000 g for 10 minutes at approximately 4° C. The washed pellets containing the cellular membranes were stored at approximately −80° C.
(§2) Filters were washed three times with 50 mM Tris-HCl at p-H 7.4 at a temperature of approximately 0-4° C. and then assayed for radioactivity using a Packard Topcount® scintillation counter. Binding data were analyzed by computer-assisted non-linear regression analysis (XL fit; IDBS).

For assay [2], the target named is T1, hMC1-R. Put plainly: cyclic AMP bioassay, hMC1-R. The class given is cell-based.
Description: (§3) Intracellular cyclic AMP (cAMP) levels were determined by an electrochemiluminescence (ECL) assay (Meso Scale Discovery®, Gaithersburg, Md.; referred to hereinafter as MSD). […] Transgenic CHO-K1 cells stably expressing hMC receptor subtypes 1, 3, 4 or 5 were dispensed at a density of approximately 7,000 cells/well in 384-well Multi-Arrays plates (MSD) containing integrated carbon electrodes and coated with anti-CAMP antibody. Increasing concentrations of the test compounds were added and the cells were incubated for approximately 40 minutes at approximately 37° C. […] At the end of the second incubation period read buffer (Tris-buffered solution containing an ECL co-reactant and Triton X-100 at ph 7.8) was added and the cAMP levels in the cell lysates were immediately determined by ECL detection with a Sector Imager 6000 Reader® (MSD). Data were analyzed using a computer-assisted non-linear regression analysis (XL fit; IDBS) and reported as either an EC50 value or a Kb value.
(§4) The Kb value reflects the potency of an antagonist and is determined by Schild analysis. In brief, concentration-response curves of an agonist are carried out in the presence of increasing concentrations of an antagonist. […] It is calculated by extrapolating the line on a Schild plot to zero on the y-axis.
The target in assay [3] is T2, hMC4-R (Homo sapiens, UniProt P32245).
T2 construct: expressed in transfected cells; host or cells: CHO-K1
Put plainly: cyclic AMP bioassay, hMC4-R. It is filed as cell-based.
Description: as §3, §4

For assay [4], the target named is T3, hMC3-R (Homo sapiens, UniProt P41968).
T3 construct: expressed in transfected cells; host or cells: CHO-K1
Put plainly: cyclic AMP bioassay, hMC3-R. It is filed as cell-based.
Description: as §3, §4

Assay [5] addresses T4, hMC5-R (Homo sapiens, UniProt P33032).
T4 construct: expressed in transfected cells; host or cells: CHO-K1
Put plainly: cyclic AMP bioassay, hMC5-R. It is filed as cell-based.
Description: as §3, §4

Assay [6] addresses T2, hMC4-R. Put plainly: Radioligand binding assay, hMC4-R. How it is done: as §1, §2
Assay [7] addresses T3, hMC3-R. Put plainly: Radioligand binding assay, hMC3-R. How it is done:
as §1, §2

T1 sequence (Q01726 whole entry): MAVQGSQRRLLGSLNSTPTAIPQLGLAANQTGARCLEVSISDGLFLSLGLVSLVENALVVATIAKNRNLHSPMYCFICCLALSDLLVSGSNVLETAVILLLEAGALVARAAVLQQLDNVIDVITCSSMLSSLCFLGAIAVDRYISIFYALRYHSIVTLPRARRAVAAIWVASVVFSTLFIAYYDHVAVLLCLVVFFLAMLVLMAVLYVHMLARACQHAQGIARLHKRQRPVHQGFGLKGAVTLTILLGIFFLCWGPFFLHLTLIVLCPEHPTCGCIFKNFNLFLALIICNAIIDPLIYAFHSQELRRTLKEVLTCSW
T4 sequence (P33032 whole entry): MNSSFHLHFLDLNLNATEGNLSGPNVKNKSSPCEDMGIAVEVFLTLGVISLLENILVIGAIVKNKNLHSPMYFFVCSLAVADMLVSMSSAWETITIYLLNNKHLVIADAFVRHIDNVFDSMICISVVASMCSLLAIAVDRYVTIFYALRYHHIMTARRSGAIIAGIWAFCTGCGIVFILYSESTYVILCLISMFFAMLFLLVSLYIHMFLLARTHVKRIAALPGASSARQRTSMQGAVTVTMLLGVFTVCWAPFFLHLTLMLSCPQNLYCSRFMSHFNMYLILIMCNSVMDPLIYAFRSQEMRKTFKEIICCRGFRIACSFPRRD
T3 sequence (P41968 whole entry): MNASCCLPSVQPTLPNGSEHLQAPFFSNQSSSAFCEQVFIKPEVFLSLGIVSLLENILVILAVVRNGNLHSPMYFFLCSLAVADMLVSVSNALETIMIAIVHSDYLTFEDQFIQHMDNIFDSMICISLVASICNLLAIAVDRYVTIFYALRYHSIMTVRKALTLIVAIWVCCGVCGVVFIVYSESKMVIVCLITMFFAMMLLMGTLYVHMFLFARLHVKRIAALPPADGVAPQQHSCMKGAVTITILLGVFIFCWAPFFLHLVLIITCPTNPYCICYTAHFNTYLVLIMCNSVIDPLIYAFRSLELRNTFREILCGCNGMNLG
T2 sequence (P32245 whole entry): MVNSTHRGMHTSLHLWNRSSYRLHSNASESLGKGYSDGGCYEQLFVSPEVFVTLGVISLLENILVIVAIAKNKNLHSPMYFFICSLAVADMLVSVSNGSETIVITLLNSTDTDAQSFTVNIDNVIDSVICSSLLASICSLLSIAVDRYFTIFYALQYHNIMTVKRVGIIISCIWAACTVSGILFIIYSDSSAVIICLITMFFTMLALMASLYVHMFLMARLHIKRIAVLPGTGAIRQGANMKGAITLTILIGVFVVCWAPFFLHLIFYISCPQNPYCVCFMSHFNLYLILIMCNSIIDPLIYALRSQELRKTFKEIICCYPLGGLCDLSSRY

Usually Ki stands for a dissociation constant, usually derived from enzyme kinetics or from competition with a known ligand. Read a high Ki as lower affinity. As a reminder, the EC50 is the concentration that produces a half-maximal response. The low end stands for higher potency in that assay, the high end for lower potency in that assay. The molecule `CC(=O)N[C@H]1CSSC[C@@H](C(=O)N2CCC[C@H]2C(=O)N2CCC[C@H]2C(=O)N[C@@H](CCCCN)C(=O)N[C@@H](CC(=O)O)C(=O)NCCC(=O)N[C@@H](CCCNC(=N)N)C(=O)N[C@@H](CCCNC(=N)N)C(=O)N[C@@H](CCCNC(=N)N)C(=O)N[C@@H](CCCNC(=N)N)C(=O)N[C@@H](CCCNC(=N)N)C(=O)N[C@@H](CCCNC(=N)N)C(=O)N[C@@H](CCC(N)=O)C(=O)N[C@@H](CCCNC(=N)N)C(=O)N[C@@H](CCCNC(=N)N)C(=O)N[C@@H](CCCNC(=N)N)C(N)=O)NC(=O)[C@H](C)NC(=O)[C@H](Cc2ccc3ccccc3c2)NC(=O)[C@H](CCCNC(=N)N)NC(=O)[C@@H](Cc2ccc3ccccc3c2)NC(=O)[C@H](Cc2c[nH]cn2)NC(=O)[C@H](CCC(=O)O)NC1=O` registered a Ki in assay [1] of 0.00365 µM. For the same molecule, the EC50 in assay [2] was 0.0291 µM. Moreover, the values for the Kb in assay [3] and in assay [4] were 0.0134 µM and 0.0136 µM, respectively.
Regarding `CC(=O)N[C@H]1CSSC[C@@H](C(=O)N2CCC[C@H]2C(=O)N2CCC[C@H]2C(=O)N[C@@H](CCCCN)C(=O)N[C@@H](CC(=O)O)C(=O)NCCC(=O)NCC(=O)N[C@@H](CCCNC(=N)N)C(=O)N[C@@H](CCCCN)C(=O)N[C@@H](CCCNC(=N)N)C(=O)N[C@@H](CCCNC(=N)N)C(=O)N[C@@H](CCCNC(=N)N)C(=O)N[C@@H](CCC(N)=O)C(=O)N[C@@H](CCCNC(=N)N)C(=O)N[C@@H](CCCNC(=N)N)C(=O)N[C@@H](CCCNC(=N)N)C(N)=O)NC(=O)[C@H](C)NC(=O)[C@H](Cc2ccc3ccccc3c2)NC(=O)[C@H](CCCNC(=N)N)NC(=O)[C@@H](Cc2ccc3ccccc3c2)NC(=O)[C@H](Cc2c[nH]cn2)NC(=O)[C@H](CCC(=O)O)NC1=O`, the EC50 in assay [5] was determined as 0.57 µM; in assay [2], 0.309 µM. This molecule yielded a Ki in assay [1] of 0.00566 µM. For the same molecule, the Kb amounted to 0.0171 µM in assay [3] and 0.0228 µM in assay [4].
For the molecule `CCCC[C@H](NC(C)=O)C(=O)N[C@H]1CSSC[C@@H](C(=O)NCCC(=O)NCC(=O)N[C@@H](CCCNC(=N)N)C(=O)N[C@@H](CCCCN)C(=O)N[C@@H](CCCNC(=N)N)C(=O)N[C@@H](CCCNC(=N)N)C(=O)N[C@@H](CCCNC(=N)N)C(=O)N[C@@H](CCC(N)=O)C(=O)N[C@@H](CCCNC(=N)N)C(=O)N[C@@H](CCCNC(=N)N)C(=O)N[C@@H](CCCNC(=N)N)C(N)=O)NC(=O)[C@H](Cc2c[nH]c3ccccc23)NC(=O)[C@H](CCCNC(=N)N)NC(=O)[C@@H](Cc2ccccc2)NC(=O)[C@H](Cc2c[nH]cn2)NC(=O)[C@@H](C)NC1=O`, the EC50 in assay [5] worked out at 0.566 µM; in assay [2] it was 0.00281 µM; in assay [3] it was 0.000298 µM; in assay [4] it was 0.00329 µM. For the same molecule, the Ki in assay [6] was determined as 0.000293 µM; in assay [7] it was 0.00121 µM.
With `CC(=O)N[C@H]1CSSC[C@@H](C(=O)N2CCC[C@H]2C(=O)N2CCC[C@H]2C(=O)N[C@@H](CCCCN)C(=O)N[C@@H](CC(=O)O)C(=O)NCCC(=O)N[C@@H](Cc2ccc(O)cc2)C(=O)NCC(=O)N[C@@H](CCCNC(=N)N)C(=O)N[C@@H](CCCCN)C(=O)N[C@@H](CCCNC(=N)N)C(=O)N[C@@H](CCCNC(=N)N)C(=O)N[C@@H](CCCNC(=N)N)C(=O)N[C@@H](CCC(N)=O)C(=O)N[C@@H](CCCNC(=N)N)C(=O)N[C@@H](CCCNC(=N)N)C(=O)N[C@@H](CCCNC(=N)N)C(N)=O)NC(=O)[C@H](C)NC(=O)[C@H](Cc2cccc3ccccc23)NC(=O)[C@H](CCCNC(=N)N)NC(=O)[C@@H](Cc2ccc3ccccc3c2)NC(=O)[C@H](Cc2c[nH]cn2)NC(=O)[C@H](CCC(=O)O)NC1=O`, the EC50 stood at 0.261 µM in assay [5] and 0.102 µM in assay [2]. Further, affinity in assay [7] was put at a Ki of 0.00161 µM. Besides, the Kb in assay [3] was 0.0146 µM; in assay [4], 0.0263 µM.
